Measured values: patent US9562084B2, “Peptides derived from NCAPG2 and their use” (NATIONAL CANCER CENTER, priority 2014, dated 2017)
Where a SMILES comes first, the peptide text is derived from it. [ ]: non-standard residue; d: D form. pT = C[C@@H](OP(=O)(O)O)[C@H](N)C(=O)O

Legend:
[1] = biological target: T1, human PLK3-PBD (412-646) (Homo sapiens, UniProt Q9H4B4); experiment: Fluorescence polarization binding assay, PLK3-PBD; details: FITC-labelled peptide 10 nM, protein 0 to 4 uM
T1 construct: PLK3-PBD (412-646); GST (N, cleaved yes); made in house; host or cells: E. coli Rosetta2 (DE3) pLysS
T1 sequence (Q9H4B4 412-646): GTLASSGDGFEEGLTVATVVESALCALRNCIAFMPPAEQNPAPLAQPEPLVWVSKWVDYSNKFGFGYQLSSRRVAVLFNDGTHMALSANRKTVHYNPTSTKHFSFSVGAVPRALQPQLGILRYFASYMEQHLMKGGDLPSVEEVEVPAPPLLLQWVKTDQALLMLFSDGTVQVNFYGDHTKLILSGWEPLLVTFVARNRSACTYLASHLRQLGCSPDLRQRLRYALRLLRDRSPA
Experimental: (§1) The human PLK1-PBD (371-594), PLK2-PBD (451-685) and PLK3-PBD (412-646) genes were cloned into pGEX6p-1 vector using EcoRI/XhoI restriction sites. Proteins were over expressed in E. coli strain Rosetta2 (DE3) pLysS. The cells were grown in Terrific Broth medium to an OD600 of 0.6 at 37° C. and recombinant proteins were induced with 0.1 mM isopropyl b-D-thiogalactopyranoside (IPTG) at 25° C. for PLK2 and 20° C. for PLK1 and PLK3, respectively. The cells were further grown at 25° C. (PLK2) or 20° C. (PLK1 and PLK3) for 20 h after IPTG induction. Each cell pellet was lysed with each PLK Binding buffer as described below. […] The purified PLK-PBD proteins were concentrated and used for the fluorescence polarization binding assay.
(§2) For the fluorescence polarization binding assay, each fluorescein isothiocyanate (FITC)-labeled 1010pT (GVLSpTLI), 1010T (GVLSTLI), 1010E (GVLSELI), or 1010D (GVLSDLI) peptide was mixed with purified PLK1, PLK2 or PLK3 and incubated in a buffer containing 10 mM HEPES (pH 7.5), 50 mM NaCl, 1 mM EDTA, 1 mM DTT and 0.0025% (v/v) Tween 20. […] Fluorescence polarization was analyzed 30 min after mixing the peptide and proteins in a 96-well plate using an INFINTE 200 PRO (Tecan). […]

[2] = biological target: T2, human PLK1-PBD (371-594) (Homo sapiens, UniProt P53350); experiment: Fluorescence polarisation binding assay for the PBD of PLK1; details: FITC-labelled peptide 10 nM, protein 0 to 4 μM
T2 construct: The human PLK1-PBD (371-594) was amplified by PCR; GST (N, cleaved yes); made in house; host or cells: E. coli Rosetta2(DE3)pLysS
T2 sequence (P53350 371-594): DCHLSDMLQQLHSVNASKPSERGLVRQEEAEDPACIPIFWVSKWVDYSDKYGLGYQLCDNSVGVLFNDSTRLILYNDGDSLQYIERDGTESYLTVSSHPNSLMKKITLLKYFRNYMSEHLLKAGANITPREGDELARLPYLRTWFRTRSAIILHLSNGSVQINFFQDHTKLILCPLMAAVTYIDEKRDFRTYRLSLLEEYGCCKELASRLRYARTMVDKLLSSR
Experimental: The human PLK1-PBD (371-594) was amplified by PCR and cloned into the pGEX6p-1 vector using the EcoRI and XhoI restriction enzyme sites. The protein was overexpressed in E. coli Rosetta2(DE3)pLysS cells (Novagen). The cells were grown at 37° C. in 3 L of Terrific Broth medium to an OD600 of 0.6, and recombinant protein expression was induced with 0.1 mM isopropyl β-D-thiogalactopyranoside (IPTG) at 20° C. The cells were further grown at 20° C. for 20 hr after IPTG induction. The purification methods were similar to methods that have been previously reported (Cheng, K. Y., et al. The crystal structure of the human polo-like kinase-1 polo box domain and its phospho-peptide complex. EMBO J 22, 5757-68 (2003)). Briefly, the cell pellet was resuspended in ice-cold HBS buffer (10 mM HEPES pH 7.5, 200 mM NaCl, 3.4 mM EDTA, 0.01% (v/v) 1-thioglycerol) and homogenized by sonication. After sonication, the cell debris was centrifuged and supernatant was applied to GST Sepharose resin (GE Healthcare). After extensive washing with HBS buffer, protein was eluted with HBS buffer supplemented with 20 mM reduced glutathione. PreScission protease (GE Healthcare) was added to eluted protein in order to remove the fused GST and the cleavage product was diluted and re-passed through GST Sepharose column. The flow through was collected and applied to Superdex 75 prep grade column (GE Healthcare) equilibrated with HBS buffer. The purified protein was concentrated to 6 mg/ml and used for fluorescence polarization binding assay or crystal screening.
For the fluorescence polarisation binding assay, FITC-labelled 1010pT (GVLSpTLI) or 1010T (GVLSTLI) (SEQ ID NO: 8) peptide was mixed with purified PBD and incubated in a buffer containing 10 mM HEPES (pH7.5), 50 mM NaCl, 1 mM EDTA, 1 mM DTT, and 0.0025% (v/v) Tween 20. The final protein concentrations ranged from 0 to 4 μM, and the final peptide concentration was 10 nM. Fluorescence polarisation was analysed 30 min after mixing the peptide and proteins in a 96-well plate using a VERSAmax microplate reader (Molecular Devices). Binding curves were fitted using GraphPad Prism software (GraphPad Software).
The human PLK1-PBD (371-594), PLK2-PBD (451-685) and PLK3-PBD (412-646) genes were cloned into pGEX6p-1 vector using EcoRI/XhoI restriction sites. […] The purified PLK-PBD proteins were concentrated and used for the fluorescence polarization binding assay.
For the fluorescence polarization binding assay, each fluorescein isothiocyanate (FITC)-labeled 1010pT (GVLSpTLI), 1010T (GVLSTLI), 1010E (GVLSELI), or 1010D (GVLSDLI) peptide was mixed with purified PLK1, PLK2 or PLK3 and incubated in a buffer containing 10 mM HEPES (pH 7.5), 50 mM NaCl, 1 mM EDTA, 1 mM DTT and 0.0025% (v/v) Tween 20. […]

[3] = biological target: T3, human PLK2-PBD (451-685) (Homo sapiens, UniProt Q9NYY3); experiment: Fluorescence polarization binding assay, PLK2-PBD; details: FITC-labelled peptide 10 nM, protein 0 to 4 uM
T3 construct: PLK2-PBD (451-685); GST (N, cleaved yes); made in house; host or cells: E. coli Rosetta2 (DE3) pLysS
T3 sequence (Q9NYY3 451-685): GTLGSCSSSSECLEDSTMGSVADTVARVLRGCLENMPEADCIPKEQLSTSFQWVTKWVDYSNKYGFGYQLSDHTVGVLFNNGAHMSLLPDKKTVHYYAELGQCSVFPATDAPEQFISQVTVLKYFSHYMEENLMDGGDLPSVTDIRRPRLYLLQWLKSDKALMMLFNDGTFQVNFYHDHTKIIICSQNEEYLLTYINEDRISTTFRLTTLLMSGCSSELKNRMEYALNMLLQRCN
Experimental: as §1, §2

[4] = tested on: C. elegans; experiment: Embryonic mitosis and development after nocodazole treatment of worms; assay type: in vivo; details: nocodazole alone, without capg-2 RNAi
Experimental: C. elegans were cultivated on NGM plates at 20° C. as a standard culture method (Brenner, S. Genetics 77, 71-94 (1974)). The capg-2 RNAi clone was obtained from Dr. J. Ahringer's bacteria-feeding RNAi library, which was a kind gift from Dr. J. Lee (Seoul National University). The wild-type N2 strain was used for measuring embryo lethality when capg-2 RNAi was treated with nocodazole. RW10006 (HIS-72::GFP), XA3501 (GFP::HIS-11 and GFP::TBB-2), JG479 (NPP-1::GFP, mCherry::HIS-58 and GFP::TBB-2) and SA17(GFP::PLK-1) were used to determine the effects of capg-2 knockdown on mitosis. JG479 was generated by crossing XA3501 and OCF3 (NPP-1::GFP and mCherry::HIS-58). HIS-72 is histone 3, and TBB-2 is β-tubulin. Both HIS-11 and HIS-58 are histone 2B proteins (www.wormbase.org). Most strains were provided by the CGC, which is funded by the NIH Office of Research Infrastructure Programs (P40 OD010440). For capg-2 RNA interference, L4 worms were transferred to the RNAi plate, and the F1 embryos were observed. The HT115 E. coli strain, which contains the empty RNAi vector (L4440), was used as the control. […] The worms were removed after laying eggs for 12 hours, and the dead embryos were counted the next day. […]

Row | binding to PLK3-PBD (in words) [1] | binding to PLK1-PBD (in words) [2] | binding to PLK1-PBD (in words) ([2]; listed as GVLS-pT-LI) | binding to PLK2-PBD (in words) [3] | SMILES | effect on mitosis of embryos [4]
1 | did not bind | specifically binds | interacts strongly | did not bind | CC[C@H](C)[C@H](NC(=O)[C@H](CC(C)C)NC(=O)[C@@H](NC(=O)[C@H](CO)NC(=O)[C@H](CC(C)C)NC(=O)[C@@H](NC(=O)CN)C(C)C)[C@@H](C)OP(=O)(O)O)C(N)=O [1010pT, GVLSpTLI] (H-GVLS[pT]LI-NH2; N-terminus and C-terminus assumed) | 
2 |  |  |  |  | COC(=O)Nc1nc2ccc(C(=O)c3cccs3)cc2[nH]1 [Nocodazole, nocodazole] | did not directly affect mitosis
